Legend:
Test in all cases: CDKi biochemical assay (TR-FRET, phosphorylation of S780 on RB1 peptide)
CDK2/CyclinE1 = CDK2/CyclinE1 (Homo sapiens, UniProt P24941); conditions: CDK2/CyclinE1 100 pM, 1 mM ATP, 60 min at 25° C.
Method in brief: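 CDK2/CyclinE1 (Avi-tag, 100 pM; CDK2 E. coli-expressed) phosphorylated His-MBP-RB1[773-924] (200 nM) at S780 with 1 mM ATP in HEPES pH 7.5/MgCl2/DTT, 60 min at 25° C. After EDTA quench, TR-FRET detection ran 3 h (Eu anti-p-RB S780, SA-APC). Apparent IC50 came from percent activity versus log concentration.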

CDK1/CyclinB1 = CDK1/CyclinB1 (Homo sapiens, UniProt P06493); conditions: CDK1/CyclinB1 10 pM, 1 mM ATP, 60 min at 25° C.
Method in brief: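 CDK1/CyclinB1 (10 pM, Avi-tagged, insect-cell expressed) phosphorylated S780 of His-MBP-RB1[773-924] (200 nM) with 1 mM ATP in HEPES pH 7.5, 10 mM MgCl2, 1 mM DTT, 60 min at 25 °C. After EDTA quench, TR-FRET detection (Eu anti-pRB S780, SA-APC) for 3 h; apparent IC50 from percent activity versus log concentration.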

CDK4/cyclinD1 = CDK4/cyclinD1 (Homo sapiens, UniProt P11802); conditions: CDK4/cyclinD1 20 pM, 1 mM ATP, 60 min at 25° C.
Method in brief: (§1)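 Avi-tagged, biotinylated CDK4/cyclinD1 (20 pM) or CDK6/cyclinD3 (10 pM) phosphorylates 200 nM His-MBP-RB1[773-924] at S780 with 1 mM ATP in HEPES pH 7.5/MgCl2, 60 min, 25° C. After EDTA quench, Eu anti-pRB(S780)/SA-APC TR-FRET is read after 3 h. Apparent IC50 comes from % activity versus log concentration.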

CDK6/cyclinD3 = CDK6/cyclinD3 (Homo sapiens, UniProt Q00534); conditions: CDK6/cyclinD3 10 pM, 1 mM ATP, 60 min at 25° C.
Method in brief: as §1

Structure (SMILES) | IC50 (CDK2/CyclinE1) | IC50 (CDK1/CyclinB1) | IC50 (CDK4/cyclinD1) | IC50 (CDK6/cyclinD3)
O=C1N([C@@H]2CCC[C@@H](O)C2)c2nc(Nc3c[nH]nc3O)ncc2C12CC2 [Example 77, 2′-((3-hydroxy-1H-pyrazol-4-yl)amino)-7′-((1R,3R)-3-hydroxycyclohexyl)spiro[cyclopropane-1,5′-pyrrolo[2,3-d]pyrimidin]-6′(7′H)-one] | 0.121 µM | 5.82 µM | 1.48 µM | 5.26 µM
COCc1n[nH]cc1Nc1ncc2c(n1)N([C@@H]1CCC[C@@H](O)C1)C(=O)C21CC1 [Example 21, 7′-((1R,3R)-3-hydroxycyclohexyl)-2′-((3-(methoxymethyl)-1H-pyrazol-4-yl)amino)spiro[cyclopropane-1,5′-pyrrolo[2,3-d]pyrimidin]-6′(7′H)-one] | 0.017 µM | 2.5 µM | 2.26 µM | 4.46 µM
COCc1ncc(Nc2ncc3c(n2)N([C@@H]2CCC[C@@H](O)C2)C(=O)C32CC2)[nH]1 [Example 11, 7′-((1R,3R)-3-hydroxycyclohexyl)-2′-((2-(methoxymethyl)-1H-imidazol-5-yl)amino)spiro[cyclopropane-1,5′-pyrrolo[2,3-d]pyrimidin]-6′(7′H)-one] | 1.35 µM | ≥ 10 µM | 5.73 µM | 9.35 µM
Cc1n[nH]cc1Nc1ncc2c(n1)N([C@H]1C[C@H](O)CC(C)(C)C1)C(=O)C21CC1 [Example 7, 7′-((1R,5R)-5-hydroxy-3,3-dimethylcyclohexyl)-2′-((3-methyl-1H-pyrazol-4-yl)amino)spiro[cyclopropane-1,5′-pyrrolo[2,3-d]pyrimidin]-6′(7′H)-one] | 0.136 µM | 5.99 µM | 3.86 µM | 2.21 µM
O=C1N([C@@H]2CCC[C@@H](O)C2)c2nc(Nc3c[nH]nc3-c3cnn4ccncc34)ncc2C12CC2 [Example 64, 7′-((1R,3R)-3-hydroxycyclohexyl)-2′-((3-(pyrazolo[1,5-a]pyrazin-3-yl)-1H-pyrazol-4-yl)amino)spiro[cyclopropane-1,5′-pyrrolo[2,3-d]pyrimidin]-6′(7′H)-one] | 0.012 µM | 2.19 µM | 4.7 µM | 6.49 µM
O=C1N([C@@H]2CCC[C@@H](O)C2)c2nc(Nc3c[nH]nc3C#Cc3cccnc3)ncc2C12CC2 [Example 36, 7′-((1R,3R)-3-hydroxycyclohexyl)-2′-((3-(pyridin-3-ylethynyl)-1H-pyrazol-4-yl)amino)spiro[cyclopropane-1,5′-pyrrolo[2,3-d]pyrimidin]-6′(7′H)-one] | 0.039 µM | 4.99 µM | ≥ 10 µM | ≥ 10 µM
Cn1ncc(-c2n[nH]cc2Nc2ncc3c(n2)N([C@@H]2CCC[C@@H](O)C2)C(=O)C32CC2)c1Cl [Example 57, 2′-((5′-chloro-1′-methyl-1H,1′H-[3,4′-bipyrazol]-4-yl)amino)-7-((1R,3R)-3-hydroxycyclohexyl)spiro[cyclopropane-1,5′-pyrrolo[2,3-d]pyrimidin]-6′(7′H)-one] | 0.015 µM | 2.04 µM | 7.9 µM | ≥ 10 µM
Cn1ccc(COc2n[nH]cc2Nc2ncc3c(n2)N([C@@H]2CCC[C@@H](O)C2)C(=O)C32CC2)n1 [Example 43, 7′-((1R,3R)-3-hydroxycyclohexyl)-2′-((3-((1-methyl-1H-pyrazol-3-yl)methoxy)-1H-pyrazol-4-yl)amino)spiro[cyclopropane-1,5′-pyrrolo[2,3-d]pyrimidin]-6′(7′H)-one] | 0.019 µM | 1.76 µM | 3.09 µM | 8.84 µM
O=C1N([C@@H]2CCC[C@@H](O)C2)c2nc(Nc3c[nH]nc3-c3cnn4cccnc34)ncc2C12CC2 [Example 81, 7′-((1R,3R)-3-hydroxycyclohexyl)-2′-((3-(pyrazolo[1,5-a]pyrimidin-3-yl)-1H-pyrazol-4-yl)amino)spiro[cyclopropane-1,5′-pyrrolo[2,3-d]pyrimidin]-6′(7′H)-one] | 0.006 µM | 0.41 µM | ≥ 10 µM | ≥ 10 µM

The next lines start with the values.

IC50 (CDK2/CyclinE1) | IC50 (CDK1/CyclinB1) | IC50 (CDK4/cyclinD1) | IC50 (CDK6/cyclinD3) | Structure (SMILES)
0.011 µM | 1.43 µM | 8.5 µM | ≥ 10 µM | O=C1N([C@@H]2CCC[C@@H](O)C2)c2nc(Nc3c[nH]nc3OC3CC3)ncc2C12CC2 [Example 55]
0.022 µM | 4.27 µM | 6.95 µM | 9.8 µM | O=C1N([C@@H]2CCC[C@@H](O)C2)c2nc(Nc3c[nH]nc3OC3CCC(F)(F)C3)ncc2C12CC2 (some centres unmarked) [Example 30]
0.01 µM | 0.8 µM | 3.13 µM | 6.28 µM | O=C1N([C@@H]2CCC[C@@H](O)C2)c2nc(Nc3c[nH]nc3OCC(F)(F)F)ncc2C12CC2 [Example 56, 7′-((1R,3R)-3-hydroxycyclohexyl)-2′-((3-(2,2,2-trifluoroethoxy)-1H-pyrazol-4-yl)amino)spiro[cyclopropane-1,5′-pyrrolo[2,3-d]pyrimidin]-6′(7′H)-one]
0.053 µM | 4.49 µM | 6.9 µM | ≥ 10 µM | C[C@]1(O)C[C@H](COc2n[nH]cc2Nc2ncc3c(n2)N([C@@H]2CCC[C@@H](O)C2)C(=O)C32CC2)C1 [Example 65, 2′-((3-(((1r,3R)-3-hydroxy-3-methylcyclobutyl)methoxy)-1H-pyrazol-4-yl)amino)-7′-((1R,3R)-3-hydroxycyclohexyl)spiro[cyclopropane-1,5′-pyrrolo[2,3-d]pyrimidin]-6′(7′H)-one]
0.018 µM | 1.21 µM | 4.52 µM | 6.68 µM | Cc1n[nH]cc1Nc1ncc2c(n1)N([C@@H]1CCC[C@@H](O)C1)C(=O)C21CC1 [Example 2, 7′-((1R,3R)-3-hydroxycyclohexyl)-2′-((3-methyl-1H-pyrazol-4-yl)amino)spiro[cyclopropane-1,5′-pyrrolo[2,3-d]pyrimidin]-6′(7′H)-one]
0.015 µM | 2.64 µM | 9.77 µM | ≥ 10 µM | [2H]C([2H])([2H])Oc1n[nH]cc1Nc1ncc2c(n1)N([C@@H]1CCC[C@@H](O)C1)C(=O)C21CC1 [Example 49, 7′-((1R,3R)-3-hydroxycyclohexyl)-2′-((3-(methoxy-d3)-1H-pyrazol-4-yl)amino)spiro[cyclopropane-1,5′-pyrrolo[2,3-d]pyrimidin]-6′(7′H)-one]
0.134 µM | ≥ 10 µM | ≥ 10 µM | ≥ 10 µM | O=C1N([C@@H]2CCC[C@@H](O)C2)c2nc(Nc3c[nH]nc3OCC3CC4(COC4)C3)ncc2C12CC2 [Example 54, 2′-((3-((2-oxaspiro[3.3]heptan-6-yl)methoxy)-1H-pyrazol-4-yl)amino)-7′-((1R,3R)-3-hydroxycyclohexyl)spiro[cyclopropane-1,5′-pyrrolo[2,3-d]pyrimidin]-6′(7′H)-one]
0.043 µM | 3.69 µM | ≥ 10 µM | ≥ 10 µM | O=C1N([C@@H]2CCC[C@@H](O)C2)c2nc(Nc3c[nH]nc3O[C@@H]3CCOC3)ncc2C12CC2 [Example 63, 7′-((1R,3R)-3-hydroxycyclohexyl)-2′-((3-(((R)-tetrahydrofuran-3-yl)oxy)-1H-pyrazol-4-yl)amino)spiro[cyclopropane-1,5′-pyrrolo[2,3-d]pyrimidin]-6′(7′H)-one]
0.027 µM | 1.71 µM | 4.4 µM | ≥ 10 µM | O=C1N([C@@H]2CCC[C@@H](O)C2)c2nc(Nc3c[nH]nc3OC3(CF)CC3)ncc2C12CC2 [Example 85, 2′-((3-(1-(fluoromethyl)cyclopropoxy)-1H-pyrazol-4-yl)amino)-7′-((1R,3R)-3-hydroxycyclohexyl)spiro[cyclopropane-1,5′-pyrrolo[2,3-d]pyrimidin]-6′(7′H)-one]
0.049 µM | 3.76 µM | ≥ 10 µM | ≥ 10 µM | O=C1N([C@@H]2CCC[C@@H](O)C2)c2nc(Nc3c[nH]nc3[C@@H]3CC3(F)F)ncc2C12CC2 [Example 33, 2′-((3-((S)-2,2-difluorocyclopropyl)-1H-pyrazol-4-yl)amino)-7′-((1R,3R)-3-hydroxycyclohexyl)spiro[cyclopropane-1,5′-pyrrolo[2,3-d]pyrimidin]-6′(7′H)-one]
0.061 µM | 7.5 µM | ≥ 10 µM | ≥ 10 µM | O=C1N([C@@H]2CCC[C@@H](O)C2)c2nc(Nc3c[nH]nc3OC[C@H]3CCOC3)ncc2C12CC2 [Example 72, 7′-((1R,3R)-3-hydroxycyclohexyl)-2′-((3-(((S)-tetrahydrofuran-3-yl)methoxy)-1H-pyrazol-4-yl)amino)spiro[cyclopropane-1,5′-pyrrolo[2,3-d]pyrimidin]-6′(7′H)-one]
